Cc1ccc(N)c([N+](=O)[O-])c1
Conditions	solubility (mole fraction)
in 1,2-dichloroethane, 278.15 K	0.0289
in 1,2-dichloroethane, 280.65 K	0.0326
in 1,2-dichloroethane, 283.15 K	0.0355
in 1,2-dichloroethane, 285.65 K	0.0397
in 1,2-dichloroethane, 288.15 K	0.0432
in 1,2-dichloroethane, 290.65 K	0.0468
in 1,2-dichloroethane, 293.15 K	0.0506
in 1,2-dichloroethane, 295.65 K	0.0548
in 1,2-dichloroethane, 298.15 K	0.0594
in 1,2-dichloroethane, 300.65 K	0.0642
in 1,2-dichloroethane, 303.15 K	0.0692
in 1,2-dichloroethane, 305.65 K	0.0747
in 1,2-dichloroethane, 308.15 K	0.0806
in 1,2-dichloroethane, 310.65 K	0.087
in 1,2-dichloroethane, 313.15 K	0.0937
in 1,2-dichloroethane, 315.65 K	0.101
in 1,2-dichloroethane, 318.15 K	0.109
in 1,4-dioxane, 283.15 K	0.0404
in 1,4-dioxane, 285.65 K	0.0452
in 1,4-dioxane, 288.15 K	0.0507
in 1,4-dioxane, 290.65 K	0.0568
in 1,4-dioxane, 293.15 K	0.0637
in 1,4-dioxane, 295.65 K	0.0712
in 1,4-dioxane, 298.15 K	0.0794
in 1,4-dioxane, 300.65 K	0.0883
in 1,4-dioxane, 303.15 K	0.0986
in 1,4-dioxane, 305.65 K	0.11
in 1,4-dioxane, 308.15 K	0.121
in 1,4-dioxane, 310.65 K	0.134
in 1,4-dioxane, 313.15 K	0.149
in 2-butanone, 278.15 K	0.12
in 2-butanone, 280.65 K	0.128
in 2-butanone, 283.15 K	0.136
in 2-butanone, 285.65 K	0.144
in 2-butanone, 288.15 K	0.153
in 2-butanone, 290.65 K	0.162
in 2-butanone, 293.15 K	0.171
in 2-butanone, 295.65 K	0.181
in 2-butanone, 298.15 K	0.191
in 2-butanone, 300.65 K	0.202
in 2-butanone, 303.15 K	0.213
in 2-butanone, 305.65 K	0.224
in 2-butanone, 308.15 K	0.236
in 2-butanone, 310.65 K	0.249
in 2-butanone, 313.15 K	0.261
in DMF, 278.15 K	0.0984
in DMF, 280.65 K	0.105
in DMF, 283.15 K	0.112
in DMF, 285.65 K	0.122
in DMF, 288.15 K	0.131
in DMF, 290.65 K	0.14
in DMF, 293.15 K	0.15
in DMF, 295.65 K	0.161
in DMF, 298.15 K	0.171
in DMF, 300.65 K	0.182
in DMF, 303.15 K	0.194
in DMF, 305.65 K	0.206
in DMF, 308.15 K	0.219
in DMF, 310.65 K	0.232
in DMF, 313.15 K	0.247
in acetonitrile, 278.15 K	0.0274
in acetonitrile, 280.65 K	0.0302
in acetonitrile, 283.15 K	0.0334
in acetonitrile, 285.65 K	0.0369
in acetonitrile, 288.15 K	0.0406
in acetonitrile, 290.65 K	0.0447
in acetonitrile, 293.15 K	0.0493
in acetonitrile, 295.65 K	0.0543
in acetonitrile, 298.15 K	0.0602
in acetonitrile, 300.65 K	0.0657
in acetonitrile, 303.15 K	0.0721
in acetonitrile, 305.65 K	0.0794
in acetonitrile, 308.15 K	0.0872
in acetonitrile, 310.65 K	0.0955
in acetonitrile, 313.15 K	0.105
in chlorobenzene, 278.15 K	0.016
in chlorobenzene, 280.65 K	0.0174
in chlorobenzene, 283.15 K	0.0194
in chlorobenzene, 285.65 K	0.0216
in chlorobenzene, 288.15 K	0.0239
in chlorobenzene, 290.65 K	0.0262
in chlorobenzene, 293.15 K	0.0288
in chlorobenzene, 295.65 K	0.0316
in chlorobenzene, 298.15 K	0.0349
in chlorobenzene, 300.65 K	0.0383
in chlorobenzene, 303.15 K	0.0421
in chlorobenzene, 305.65 K	0.0463
in chlorobenzene, 308.15 K	0.0507
in chlorobenzene, 310.65 K	0.0556
in chlorobenzene, 313.15 K	0.0611
in chlorobenzene, 315.65 K	0.0671
in chlorobenzene, 318.15 K	0.0738
in ethanol, 278.15 K	0.00983
in ethanol, 280.65 K	0.0107
in ethanol, 283.15 K	0.0118
in ethanol, 285.65 K	0.0128
in ethanol, 288.15 K	0.0139
in ethanol, 290.65 K	0.0152
in ethanol, 293.15 K	0.0165
in ethanol, 295.65 K	0.0179
in ethanol, 298.15 K	0.0194
in ethanol, 300.65 K	0.021
in ethanol, 303.15 K	0.0228
in ethanol, 305.65 K	0.0246
in ethanol, 308.15 K	0.0266
in ethanol, 310.65 K	0.0289
in ethanol, 313.15 K	0.0312
in ethyl acetate, 278.15 K	0.076
in ethyl acetate, 280.65 K	0.0816
in ethyl acetate, 283.15 K	0.087
in ethyl acetate, 285.65 K	0.0933
in ethyl acetate, 288.15 K	0.0996
in ethyl acetate, 290.65 K	0.106
in ethyl acetate, 293.15 K	0.113
in ethyl acetate, 295.65 K	0.12
in ethyl acetate, 298.15 K	0.128
in ethyl acetate, 300.65 K	0.136
in ethyl acetate, 303.15 K	0.144
in ethyl acetate, 305.65 K	0.153
in ethyl acetate, 308.15 K	0.162
in ethyl acetate, 310.65 K	0.172
in ethyl acetate, 313.15 K	0.182
in isopropanol, 278.15 K	0.0102
in isopropanol, 280.65 K	0.0112
in isopropanol, 283.15 K	0.0122
in isopropanol, 285.65 K	0.0134
in isopropanol, 288.15 K	0.0146
in isopropanol, 290.65 K	0.0161
in isopropanol, 293.15 K	0.0176
in isopropanol, 295.65 K	0.0192
in isopropanol, 298.15 K	0.0209
in isopropanol, 300.65 K	0.0227
in isopropanol, 303.15 K	0.0248
in isopropanol, 305.65 K	0.0268
in isopropanol, 308.15 K	0.0293
in isopropanol, 310.65 K	0.0317
in isopropanol, 313.15 K	0.0346
in methanol, 278.15 K	0.00863
in methanol, 280.65 K	0.00933
in methanol, 283.15 K	0.0104
in methanol, 285.65 K	0.0112
in methanol, 288.15 K	0.0121
in methanol, 290.65 K	0.0133
in methanol, 293.15 K	0.0144
in methanol, 295.65 K	0.0156
in methanol, 298.15 K	0.0169
in methanol, 300.65 K	0.0182
in methanol, 303.15 K	0.0198
in methanol, 305.65 K	0.0213
in methanol, 308.15 K	0.023
in methanol, 313.15 K	0.0268
in n-butanol, 278.15 K	0.0126
in n-butanol, 280.65 K	0.0138
in n-butanol, 283.15 K	0.0152
in n-butanol, 285.65 K	0.0166
in n-butanol, 288.15 K	0.018
in n-butanol, 290.65 K	0.0197
in n-butanol, 293.15 K	0.0214
in n-butanol, 295.65 K	0.0232
in n-butanol, 298.15 K	0.0253
in n-butanol, 300.65 K	0.0273
in n-butanol, 303.15 K	0.0297
in n-butanol, 305.65 K	0.0321
in n-butanol, 308.15 K	0.0348
in n-butanol, 310.65 K	0.0376
in n-butanol, 313.15 K	0.0406
in n-propanol, 278.15 K	0.0111
in n-propanol, 280.65 K	0.012
in n-propanol, 283.15 K	0.0132
in n-propanol, 285.65 K	0.0143
in n-propanol, 288.15 K	0.0157
in n-propanol, 290.65 K	0.017
in n-propanol, 293.15 K	0.0185
in n-propanol, 295.65 K	0.0202
in n-propanol, 298.15 K	0.0218
in n-propanol, 300.65 K	0.0237
in n-propanol, 303.15 K	0.0257
in n-propanol, 305.65 K	0.0278
in n-propanol, 310.65 K	0.0326
in n-propanol, 313.15 K	0.0352
in tetrachloromethane, 278.15 K	0.00242
in tetrachloromethane, 280.65 K	0.00265
in tetrachloromethane, 283.15 K	0.00297
in tetrachloromethane, 285.65 K	0.00333
in tetrachloromethane, 288.15 K	0.00371
in tetrachloromethane, 290.65 K	0.00406
in tetrachloromethane, 293.15 K	0.00452
in tetrachloromethane, 295.65 K	0.00497
in tetrachloromethane, 298.15 K	0.0055
in tetrachloromethane, 300.65 K	0.00602
in tetrachloromethane, 303.15 K	0.00662
in tetrachloromethane, 305.65 K	0.00721
in tetrachloromethane, 308.15 K	0.00797
in tetrachloromethane, 310.65 K	0.00876
in tetrachloromethane, 313.15 K	0.00963
in tetrachloromethane, 315.65 K	0.0105
in tetrachloromethane, 318.15 K	0.0117
in toluene, 278.15 K	0.0118
in toluene, 280.65 K	0.0131
in toluene, 283.15 K	0.0146
in toluene, 285.65 K	0.016
in toluene, 288.15 K	0.0176
in toluene, 290.65 K	0.0194
in toluene, 293.15 K	0.0215
in toluene, 295.65 K	0.0236
in toluene, 298.15 K	0.0259
in toluene, 300.65 K	0.0284
in toluene, 303.15 K	0.0312
in toluene, 305.65 K	0.0343
in toluene, 308.15 K	0.0375
in toluene, 310.65 K	0.0411
in toluene, 313.15 K	0.045
